What was measured:
[1] = biological target: T1, human TMEM16A (TMEM16Aabc variant) (Homo sapiens, UniProt Q5XXA6); assay: Automated whole-cell patch clamp (QPatch) TMEM16A potentiator assay in FRT cells stably expressing human TMEM16A; type: cell-based; settings: for QPatch TMEM16A % Potentiation @ 370 nM: 370 nM test compound; for QPatch TMEM16A % Potentiation @ 370 nM / QPatch TMEM16A % Potentation @ 3.3 μM: percentage increase of baseline TMEM16A current; for QPatch TMEM16A % Potentation @ 3.3 μM: 3.3 μM test compound
T1 construct: human TMEM16A (TMEM16Aabc variant)
T1 sequence (Q5XXA6 1-986): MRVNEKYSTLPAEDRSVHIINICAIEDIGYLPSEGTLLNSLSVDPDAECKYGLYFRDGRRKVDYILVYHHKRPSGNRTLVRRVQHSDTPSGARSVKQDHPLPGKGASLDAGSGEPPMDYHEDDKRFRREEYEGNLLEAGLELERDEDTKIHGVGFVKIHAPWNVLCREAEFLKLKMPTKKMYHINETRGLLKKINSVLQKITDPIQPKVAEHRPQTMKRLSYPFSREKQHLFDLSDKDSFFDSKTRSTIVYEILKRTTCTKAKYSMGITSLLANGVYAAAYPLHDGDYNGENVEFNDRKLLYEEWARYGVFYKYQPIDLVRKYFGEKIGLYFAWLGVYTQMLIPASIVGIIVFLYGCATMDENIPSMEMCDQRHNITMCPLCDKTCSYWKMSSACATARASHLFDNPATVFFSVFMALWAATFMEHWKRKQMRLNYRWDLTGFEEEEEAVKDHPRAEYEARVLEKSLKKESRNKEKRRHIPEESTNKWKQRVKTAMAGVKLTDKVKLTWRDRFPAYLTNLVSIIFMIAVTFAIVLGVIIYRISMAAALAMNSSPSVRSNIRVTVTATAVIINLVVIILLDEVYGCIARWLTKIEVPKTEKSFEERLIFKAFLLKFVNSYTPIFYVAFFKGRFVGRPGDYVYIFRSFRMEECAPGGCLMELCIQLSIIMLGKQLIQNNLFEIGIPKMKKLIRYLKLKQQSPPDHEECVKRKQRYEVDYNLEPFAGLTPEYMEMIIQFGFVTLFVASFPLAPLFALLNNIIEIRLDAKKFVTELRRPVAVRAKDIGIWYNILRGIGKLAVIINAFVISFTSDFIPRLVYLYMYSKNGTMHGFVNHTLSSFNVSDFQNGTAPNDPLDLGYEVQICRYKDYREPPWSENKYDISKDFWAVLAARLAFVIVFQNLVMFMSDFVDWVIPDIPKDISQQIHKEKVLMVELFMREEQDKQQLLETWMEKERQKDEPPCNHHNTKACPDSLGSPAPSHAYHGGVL
Protocol: Fisher rat thyroid (FRT) cells stably expressing human TMEM16A (TMEM16Aabc variant; Dr Luis Galietta, Insituto Giannina, Italy) were cultured in T-75 flasks in Hams F-12 media with Coon's modification (Sigma) supplemented with 10% (v/v) foetal bovine serum, penicillin-streptomycin (10,000 U/mL/10000 μg/mL), G-418 (750 μg/mL), L-glutamine (2 mM) and sodium bicarbonate solution (7.5% v/v). At ˜90% confluence cells were harvested for experiments by detachment with a 2:1 (v/v) mixture of Detachin (BMS Biotechnology) and 0.25% (w/v) trypsin-EDTA.
FRT-TMEM16A cells were whole-cell patch clamped using an automated planar patch clamp system (Qpatch, Sophion). Briefly, once high resistance (GOhm) seals were established between the cells and the planar recording array the patch was ruptured using suction pulses to establish the whole-cell recording configuration of the patch clamp technique. The assay employed the following solutions (all reagents Sigma): Intracellular solution (mM): N-methyl-D-glucamine 130, CaCl2 18.2, MgCl2 1, HEPES 10, EGTA 10, BAPTA 20, Mg-ATP 2, pH 7.25, 325 mOsm with sucrose.
Extracellular solution (mM): N-methyl-D-glucamine 130, CaCl2 2, MgCl2 1, HEPES 10, pH 7.3, 320 mOsm with sucrose.
The intracellular solution buffers intracellular calcium at levels required to give ˜20% activation of the maximal TMEM16A mediated current (EC20 for calcium ions). Cells were voltage clamped at a holding potential of −70 mV and a combined voltage step (to +70 mV)/ramp (−90 my to +90 mV) was applied at 0.05 Hz. After a period of current stabilisation test compounds, solubilised in 100% (v/v) DMSO and subsequently diluted into extracellular solution, were applied to generate a cumulative concentration response curve. Each concentration of test compound was incubated for 5 minutes before addition of the next concentration. After the final concentration was tested a supramaximal concentration of either a known active positive modulator or the TMEM16A inhibitor, CaCCinhA01 (Del La Fuente et al, 2008) was added to define the upper and lower limits of the assay.
Compound activity was quantified by measuring the increase in current upon compound addition and expressing this as a percentage increase of baseline TMEM16A current level.
In FIG. 1, IBL equals baseline current, I[#1] equals the peak current during test compound concentration 1 incubation period and so on.
Peak TMEM16A current at +70 mV was plotted as a function of time over the assay period. Baseline current (IBL) was measured after a period of stabilisation. The increase in current for each compound addition was determined by taking the peak current during the incubation period and subtracting the current from the previous recording period and then expressing this as a percentage of the baseline current (% potentiation). For test compound concentration 1 in FIG. 1 this is: (I[#1]−IBL/IBL)×100 For each additional concentration tested the increase in current was determined by subtracting the current from the previous incubation period and normalising the baseline value—for test concentration 2 in FIG. 1 this is: (I[#2]−I[#1])/IBL)×100 The values for each test concentration were plotted as a cumulative function of concentration eg. for test concentration two this would be the sum of the peak changes measured during concentration one plus concentration two.

[2] = Microsomal stability (human microsomes); type: in vitro ADME; settings: pH 7.4, 1 μM compound, 0.5 mg/mL protein, 1 mM NADPH, 37° C., read-out: Human Microsome Clint
Protocol: Microsomes (human) were obtained from Bioreclamation.
All Test and reference control compounds (raloxifene, diclofenac, terfenadine, propranolol, dextromethorphan and metoprolol) were dissolved to create a 100 μM stock (final concentrations; 91.5% Acetonitrile: 8.5% DMSO). Final test compound concentration in incubation was 1 μM (<0.1% DMSO).
Solution 1: 17.4 g potassium phosphate dibasic anhydrous (K2HPO4, 0.1 M) dissolved in 1 L deionised water. Solution 2: 13.6 g potassium phosphate monobasic anhydrous (KH2PO4, 0.1 M) dissolved in 1 L deionised water. pH7.4 with 2 mM magnesium chloride. NADPH (10 mM) is prepared in deionised water. Microsomes (all species) were removed from the −80° C. thawed at 37° C. Microsomes were diluted in assay buffer to achieve a final protein concentration of 0.5 mg/mL and 1 mM NADPH.
The following procedure was completed on a Perkin Elmer Janus robotic platform in 96 well format: The microsomal incubation plate was transferred to a heater shaker at 300 rpm and solution heated to 37° C. for 10 min pre-warm. A no co-factor control at 0 and 45 min and one replicates of each test compound was included in every assay. Microsomes were incubated at 37° C., on a shaker set at 300 rpm throughout the assay. […]

| SMILES | QPatch TMEM16A % Potentiation @ 370 nM [1] [%] | QPatch TMEM16A % Potentation @ 3.3 μM [1] [%] | EC50 ([1]; FRT-TMEM16A cells, whole-cell patch clamp, peak current at +70 mV, intracellular calcium at EC20) [nM] | EC50 compared with Compound B ([1]; indole compounds versus comparator Compound B) | maximum potentiation of TMEM16A compared with Compound B ([1]; versus comparator Compound B) | microsomal CLint at 1 μM [2] [µL/min/mg] |
| --- | --- | --- | --- | --- | --- | --- |
| CC1(NC(=O)c2cc(NC(=O)Cc3ccc4cc[nH]c4c3)ccn2)CC(F)(F)C1 [Example 13.1, N-(3,3-Difluoro-1-methyl-cyclobutyl)-4-[[2-(1H-indol-6-yl)acetyl]amino] pyridine-2-carboxamide] | 113 | 115 | 50 | lower EC50 values than Compound B | improved maximum potentiation of TMEM16A | 199 |
| C#CC(C)(C)NC(=O)c1cc(NC(=O)Cc2cccc3cc[nH]c23)ccn1 [Compound B, reference compound] | 42 | 64 |  |  |  | 46 |
